Reference: article PMC5218480 (PLoS ONE, 2017)

Test system: MV-4-11 cells
Experiment: Gene expression microarray analysis (Affymetrix PrimeView) and GSEA
Format: cell-based, human
Design: RFU PODN (11730768_x_at) / Fold change /veh PODN (11730768_x_at) / RFU LINC00158 (11744669_a_at) / Fold change /veh LINC00158 (11744669_a_at) / RFU DUSP10 (11751237_a_at) / Fold change /veh DUSP10 (11751237_a_at) / RFU ID3 (11757404_x_at) / Fold change /veh ID3 (11757404_x_at) / RFU PLEKHG5 (11737974_s_at) / Fold change /veh PLEKHG5 (11737974_s_at) / RFU LRRC4B (11730491_at) / Fold change /veh LRRC4B (11730491_at) / RFU GIMAP4 (11747438_a_at) / Fold change /veh GIMAP4 (11747438_a_at) / RFU KRT8 (11758183_x_at) / Fold change /veh KRT8 (11758183_x_at) / RFU CNN1 (11734310_a_at) / Fold change /veh CNN1 (11734310_a_at) / RFU VPS37D (11726825_at) / Fold change /veh VPS37D (11726825_at) / RFU C10orf10 (11716522_x_at) / Fold change /veh C10orf10 (11716522_x_at) / RFU KIR2DL2 /// KIR2DL4 /// KIR2DL5A /// KIR2DL5B /// KIR2DS1 /// KIR2DS2 /// KIR2DS3 /// KIR2DS4 /// KIR3DL3 /// KIR3DL3 /// KIR3DS1 (11738374_at) / Fold change /veh KIR2DL2 /// KIR2DL4 /// KIR2DL5A /// KIR2DL5B /// KIR2DS1 /// KIR2DS2 /// KIR2DS3 /// KIR2DS4 /// KIR3DL3 /// KIR3DL3 /// KIR3DS1 (11738374_at) / RFU C1QL1 (11718748_at) / Fold change /veh C1QL1 (11718748_at) / RFU TMPRSS4 (11747572_a_at) / Fold change /veh TMPRSS4 (11747572_a_at) / RFU HAMP (11756126_x_at) / Fold change /veh HAMP (11756126_x_at) / RFU RNFT2 (11725882_a_at) / Fold change /veh RNFT2 (11725882_a_at) / RFU NR4A2 (11747474_a_at) / Fold change /veh NR4A2 (11747474_a_at) / RFU ABCC12 (11746883_a_at) / Fold change /veh ABCC12 (11746883_a_at) / RFU TMEM136 (11760407_x_at) / Fold change /veh TMEM136 (11760407_x_at) / RFU CLDN22 /// WWC2 (11732394_at) / Fold change /veh CLDN22 /// WWC2 (11732394_at) / RFU HLA-DPB1 (11760878_x_at) / Fold change /veh HLA-DPB1 (11760878_x_at) / RFU SPINT1 (11716480_a_at) / Fold change /veh SPINT1 (11716480_a_at) / RFU GAP43 (11754022_s_at) / Fold change /veh GAP43 (11754022_s_at) / RFU A4GNT (11735810_at) / Fold change /veh A4GNT (11735810_at) / RFU PRB3 (11715151_x_at) / Fold change /veh PRB3 (11715151_x_at) / RFU TUBB4B (11761932_at) / Fold change /veh TUBB4B (11761932_at) / RFU CAPN14 (11732068_a_at) / Fold change /veh CAPN14 (11732068_a_at) / RFU TMCC2 (11721928_a_at) / Fold change /veh TMCC2 (11721928_a_at) / RFU IRGQ (11745062_a_at) / Fold change /veh IRGQ (11745062_a_at) / RFU FAM174B (11720279_a_at) / Fold change /veh FAM174B (11720279_a_at) / RFU TMPRSS4 (11748680_a_at) / Fold change /veh TMPRSS4 (11748680_a_at) / RFU FAM212B (11763350_a_at) / Fold change /veh FAM212B (11763350_a_at) / RFU PLEKHG5 (11743358_a_at) / Fold change /veh PLEKHG5 (11743358_a_at) / RFU ZSCAN30 (11745921_a_at) / Fold change /veh ZSCAN30 (11745921_a_at) / RFU CMKLR1 (11741424_a_at) / Fold change /veh CMKLR1 (11741424_a_at) / RFU LOC101060620 /// MAPK8IP1 (11723275_at) / Fold change /veh LOC101060620 /// MAPK8IP1 (11723275_at) / RFU SPTSSB (11747773_x_at) / Fold change /veh SPTSSB (11747773_x_at) / RFU PRSS12 (11739890_at) / Fold change /veh PRSS12 (11739890_at) / RFU BIN1 (11741810_x_at) / Fold change /veh BIN1 (11741810_x_at) / RFU WNT11 (11732464_a_at) / Fold change /veh WNT11 (11732464_a_at) / RFU C10orf10 (11716521_a_at) / Fold change /veh C10orf10 (11716521_a_at) / RFU C5orf56 (11738089_at) / Fold change /veh C5orf56 (11738089_at) / RFU CYB561 (11721691_x_at) / Fold change /veh CYB561 (11721691_x_at) / RFU ANKRD19P (11752326_a_at) / Fold change /veh ANKRD19P (11752326_a_at) / RFU OR2T12 /// OR2T33 /// OR2T8 (11738714_s_at) / Fold change /veh OR2T12 /// OR2T33 /// OR2T8 (11738714_s_at) / RFU VCAN (11748164_a_at) / Fold change /veh VCAN (11748164_a_at) / RFU JSRP1 (11732532_at) / Fold change /veh JSRP1 (11732532_at) / RFU KRTAP10-11 (11738290_x_at) / Fold change /veh KRTAP10-11 (11738290_x_at) / RFU MYO3A (11730013_a_at) / Fold change /veh MYO3A (11730013_a_at) / RFU EBF3 (11725865_a_at) / Fold change /veh EBF3 (11725865_a_at) / RFU CAMK2N1 (11719241_x_at) / Fold change /veh CAMK2N1 (11719241_x_at) / RFU C5orf56 (11738088_a_at) / Fold change /veh C5orf56 (11738088_a_at) / RFU OLFML3 (11715873_a_at) / Fold change /veh OLFML3 (11715873_a_at) / RFU LOC100653217 /// NTM (11731650_a_at) / Fold change /veh LOC100653217 /// NTM (11731650_a_at) / RFU MAPK11 (11762145_a_at) / Fold change /veh MAPK11 (11762145_a_at) / RFU FIZ1 (11724087_x_at) / Fold change /veh FIZ1 (11724087_x_at) / RFU OASL (11726364_x_at) / Fold change /veh OASL (11726364_x_at) / RFU SOX15 (11748057_x_at) / Fold change /veh SOX15 (11748057_x_at) / RFU CD79A (11719716_a_at) / Fold change /veh CD79A (11719716_a_at) / RFU HIST1H1D (11736915_at) / Fold change /veh HIST1H1D (11736915_at) / RFU CASKIN2 (11723855_a_at) / Fold change /veh CASKIN2 (11723855_a_at) / RFU LOC730098 (11760151_x_at) / Fold change /veh LOC730098 (11760151_x_at) / RFU OR4N2 (11742367_at) / Fold change /veh OR4N2 (11742367_at) / RFU PRRT2 (11749266_a_at) / Fold change /veh PRRT2 (11749266_a_at) / RFU SNX32 (11753110_a_at) / Fold change /veh SNX32 (11753110_a_at) / RFU CDHR5 (11726645_a_at) / Fold change /veh CDHR5 (11726645_a_at) / RFU RCAN1 (11760418_a_at) / Fold change /veh RCAN1 (11760418_a_at) / RFU FAM167A (11723789_a_at) / Fold change /veh FAM167A (11723789_a_at) / RFU FAM26E (11764081_at) / Fold change /veh FAM26E (11764081_at) / RFU ISYNA1 (11749810_s_at) / Fold change /veh ISYNA1 (11749810_s_at) / RFU ACY1 (11761880_at) / Fold change /veh ACY1 (11761880_at) / RFU 11764098_at / Fold change /veh 11764098_at / RFU SAMD14 (11745864_x_at) / Fold change /veh SAMD14 (11745864_x_at) / RFU NPB (11741838_a_at) / Fold change /veh NPB (11741838_a_at) / RFU TMPRSS6 (11731388_a_at) / Fold change /veh TMPRSS6 (11731388_a_at) / RFU KRTAP10-2 (11738614_at) / Fold change /veh KRTAP10-2 (11738614_at) / RFU ARHGAP8 /// PRR5-ARHGAP8 (11727945_x_at) / Fold change /veh ARHGAP8 /// PRR5-ARHGAP8 (11727945_x_at) / RFU KRTAP5-7 /// NADSYN1 (11734609_at) / Fold change /veh KRTAP5-7 /// NADSYN1 (11734609_at) / RFU RASL12 (11751679_a_at) / Fold change /veh RASL12 (11751679_a_at) / RFU CDKN2B (11736163_a_at) / Fold change /veh CDKN2B (11736163_a_at) / RFU PRF1 (11729649_at) / Fold change /veh PRF1 (11729649_at) / RFU, ZNF638 /// ZNF638-IT1 / Fold change vs veh, ZNF638 /// ZNF638-IT1 / RFU, PANK3 / Fold change vs veh, PANK3 / RFU, SH3YL1 / Fold change vs veh, SH3YL1 / RFU, ZEB2 / Fold change vs veh, ZEB2 / RFU, NRIP1 / Fold change vs veh, NRIP1 / RFU, PTTG1IP / Fold change vs veh, PTTG1IP / RFU, CAPN2 / Fold change vs veh, CAPN2 / RFU, MED14 / Fold change vs veh, MED14 / RFU, SNORA58 / Fold change vs veh, SNORA58 / RFU, C1orf63 / Fold change vs veh, C1orf63 / RFU, LRRFIP1 / Fold change vs veh, LRRFIP1 / RFU, NDUFAF7 / Fold change vs veh, NDUFAF7 / RFU, SLC12A2 / Fold change vs veh, SLC12A2 / RFU, IBTK / Fold change vs veh, IBTK / RFU, ESF1 / Fold change vs veh, ESF1 / Fold change vs veh, TMEM50B / RFU, TAOK1 / Fold change vs veh, TAOK1 / RFU, ACBD3 / Fold change vs veh, ACBD3 / RFU, TMA16 / Fold change vs veh, TMA16 / RFU, RWDD3 / Fold change vs veh, RWDD3 / RFU, BCAT1 / Fold change vs veh, BCAT1 / RFU, EDEM3 / Fold change vs veh, EDEM3 / RFU, TMEM33 / Fold change vs veh, TMEM33 / RFU, WDR75 / Fold change vs veh, WDR75 / RFU, AHCTF1 / Fold change vs veh, AHCTF1 / RFU, TFRC / Fold change vs veh, TFRC / RFU, ZDHHC17 / Fold change vs veh, ZDHHC17 / RFU, NOM1 / Fold change vs veh, NOM1 / RFU, ARL8B / Fold change vs veh, ARL8B / RFU, ZBTB11 / Fold change vs veh, ZBTB11 / RFU, TAMM41 / Fold change vs veh, TAMM41 / RFU, KIAA1704 /// LOC100996395 / Fold change vs veh, KIAA1704 /// LOC100996395 / RFU, ING1 / Fold change vs veh, ING1 / RFU, TRMT61B / Fold change vs veh, TRMT61B / RFU, FUBP3 / Fold change vs veh, FUBP3 / RFU, TP53 / Fold change vs veh, TP53 / RFU, TNKS2 / Fold change vs veh, TNKS2 / RFU, ZFP14 / Fold change vs veh, ZFP14 / RFU, ACTR2 / Fold change vs veh, ACTR2 / RFU, PPP3R1 / Fold change vs veh, PPP3R1 / RFU, PIK3R1 / Fold change vs veh, PIK3R1 / RFU, HNRNPA1 / Fold change vs veh, HNRNPA1 / RFU, RNF170 / Fold change vs veh, RNF170 / RFU, ZNF28 / Fold change vs veh, ZNF28 / RFU, RNGTT / Fold change vs veh, RNGTT / RFU, OGT / Fold change vs veh, OGT / RFU, BRD1 / Fold change vs veh, BRD1 / RFU, MARS / Fold change vs veh, MARS / RFU, ZNF655 / Fold change vs veh, ZNF655 / RFU, FAHD1 / Fold change vs veh, FAHD1 / RFU, BDP1 / Fold change vs veh, BDP1 / RFU, LRRCC1 / Fold change vs veh, LRRCC1 / RFU, ARID1A / Fold change vs veh, ARID1A / RFU, ZNF146 / Fold change vs veh, ZNF146 / RFU, ZNF330 / Fold change vs veh, ZNF330 / RFU, GPN3 / Fold change vs veh, GPN3 / RFU, C9orf123 / Fold change vs veh, C9orf123 / RFU, N4BP2L2 / Fold change vs veh, N4BP2L2 / RFU, ARFIP1 / Fold change vs veh, ARFIP1 / RFU, FAM179B / Fold change vs veh, FAM179B / RFU, BCL10 / Fold change vs veh, BCL10 / RFU, UHRF1BP1L / Fold change vs veh, UHRF1BP1L / RFU, BET1 / Fold change vs veh, BET1 / RFU, CNOT2 / Fold change vs veh, CNOT2 / RFU, ZNF268 / Fold change vs veh, ZNF268 / Fold change vs veh, ZNF507 / RFU, DGCR2 / Fold change vs veh, DGCR2 / RFU, WDSUB1 / Fold change vs veh, WDSUB1 / Fold change vs veh, HSP90B1 /// MIR3652 / RFU, ADSS / Fold change vs veh, ADSS / RFU, GK / Fold change vs veh, GK / RFU, ZNF148 / Fold change vs veh, ZNF148 / RFU, TAF9 / Fold change vs veh, TAF9 / RFU, SLC1A5 / Fold change vs veh, SLC1A5 / RFU, SLMO2 / Fold change vs veh, SLMO2 / RFU, ABCC4 / Fold change vs veh, ABCC4 / RFU, LOC101060439 /// RAP1B / Fold change vs veh, LOC101060439 /// RAP1B / RFU, RFX7 / Fold change vs veh, RFX7 / RFU, GTPBP10 / Fold change vs veh, GTPBP10 / RFU, CNEP1R1 / Fold change vs veh, CNEP1R1 / RFU, BIVM-ERCC5 /// ERCC5 / Fold change vs veh, BIVM-ERCC5 /// ERCC5 / RFU, ILF3 / Fold change vs veh, ILF3 / RFU 11762660_at / Fold change /veh 11762660_at / RFU VCAN (11757783_s_at) / Fold change /veh VCAN (11757783_s_at) / RFU DDX43 (11728927_at) / Fold change /veh DDX43 (11728927_at) / RFU KRT8 (11758188_x_at) / Fold change /veh KRT8 (11758188_x_at) / RFU NKD1 (11759106_at) / Fold change /veh NKD1 (11759106_at) / RFU SRD5A1 (11742802_a_at) / Fold change /veh SRD5A1 (11742802_a_at) / RFU TPSAB1 /// TPSB2 (11721975_s_at) / Fold change /veh TPSAB1 /// TPSB2 (11721975_s_at) / RFU GSTM3 (11746129_a_at) / Fold change /veh GSTM3 (11746129_a_at) / RFU IL23R (11737362_x_at) / Fold change /veh IL23R (11737362_x_at) / RFU TMEM51 (11727254_a_at) / Fold change /veh TMEM51 (11727254_a_at) / RFU PIWIL2 (11732686_x_at) / Fold change /veh PIWIL2 (11732686_x_at) / RFU ORM1 (11744905_x_at) / Fold change /veh ORM1 (11744905_x_at) / RFU CCDC152 (11743942_at) / Fold change /veh CCDC152 (11743942_at) / RFU ECM1 (11717891_a_at) / Fold change /veh ECM1 (11717891_a_at) / RFU IL23R (11748794_a_at) / Fold change /veh IL23R (11748794_a_at) / RFU TNFAIP8L3 (11732012_x_at) / Fold change /veh TNFAIP8L3 (11732012_x_at) / RFU MBOAT4 (11741988_at) / Fold change /veh MBOAT4 (11741988_at) / RFU 11764193_at / Fold change /veh 11764193_at / RFU TMEM53 (11763286_at) / Fold change /veh TMEM53 (11763286_at) / RFU MAGEB2 (11727129_at) / Fold change /veh MAGEB2 (11727129_at) / RFU TMEM200A (11744735_a_at) / Fold change /veh TMEM200A (11744735_a_at) / RFU CCDC152 (11751479_a_at) / Fold change /veh CCDC152 (11751479_a_at) / RFU FAM211A (11726209_a_at) / Fold change /veh FAM211A (11726209_a_at) / RFU RGS16 (11746705_a_at) / Fold change /veh RGS16 (11746705_a_at) / RFU VCAN (11755009_s_at) / Fold change /veh VCAN (11755009_s_at) / RFU RHOB (11743442_s_at) / Fold change /veh RHOB (11743442_s_at) / RFU RGS16 (11720943_a_at) / Fold change /veh RGS16 (11720943_a_at) / RFU RGS16 (11720944_at) / Fold change /veh RGS16 (11720944_at) / RFU, VPS4B / Fold change vs veh, VPS4B / RFU, CREB1 / Fold change vs veh, CREB1 / RFU, DNAJC13 / Fold change vs veh, DNAJC13 / RFU, GNAQ / Fold change vs veh, GNAQ / RFU, CDK5R1 / Fold change vs veh, CDK5R1 / RFU, ZRANB3 / Fold change vs veh, ZRANB3 / RFU, CUL4A / Fold change vs veh, CUL4A / RFU, CCNY / Fold change vs veh, CCNY / RFU, UFL1 / Fold change vs veh, UFL1 / RFU, COG3 / Fold change vs veh, COG3 / RFU, DIAPH2 / Fold change vs veh, DIAPH2 / RFU, SKA2 / Fold change vs veh, SKA2 / RFU, AFF3 / Fold change vs veh, AFF3 / RFU, LMF1 / Fold change vs veh, LMF1 / RFU, IPO11 / Fold change vs veh, IPO11 / RFU, DFFB / Fold change vs veh, DFFB / RFU, FOXP1 / Fold change vs veh, FOXP1 / RFU, CARD8 / Fold change vs veh, CARD8 / RFU, STRN3 / Fold change vs veh, STRN3 / RFU, ADK / Fold change vs veh, ADK / RFU, RASSF2 / Fold change vs veh, RASSF2 / RFU, WIPF1 / Fold change vs veh, WIPF1 / RFU, LARP1B / Fold change vs veh, LARP1B / RFU, RASA1 / Fold change vs veh, RASA1 / RFU, RB1 / Fold change vs veh, RB1 / RFU, PPFIA1 / Fold change vs veh, PPFIA1 / RFU, MAT2A / Fold change vs veh, MAT2A / RFU, CCT5 / Fold change vs veh, CCT5 / RFU, WDR92 / Fold change vs veh, WDR92 / RFU, CUX1 / Fold change vs veh, CUX1 / RFU, TTC7A / Fold change vs veh, TTC7A / RFU, TMEM135 / Fold change vs veh, TMEM135 / RFU, DEPTOR / Fold change vs veh, DEPTOR / RFU, CPM / Fold change vs veh, CPM / RFU, DNAJB6 / Fold change vs veh, DNAJB6 / RFU, CACNA2D3 / Fold change vs veh, CACNA2D3 / RFU, DTX4 / Fold change vs veh, DTX4 / RFU, TFCP2 / Fold change vs veh, TFCP2 / RFU, GMCL1 /// GMCL1P1 / Fold change vs veh, GMCL1 /// GMCL1P1 / RFU, AEBP2 / Fold change vs veh, AEBP2 / RFU, SNHG1 /// SNORD22 /// SNORD25 /// SNORD26 /// SNORD27 /// SNORD28 /// SNORD29 /// SNORD31 / Fold change vs veh, SNHG1 /// SNORD22 /// SNORD25 /// SNORD26 /// SNORD27 /// SNORD28 /// SNORD29 /// SNORD31 / Fold change (Aza/veh), C12orf56 (ProbeSet 11735607_a_at) / Fold change (ACY-1035/veh), C12orf56 (ProbeSet 11735607_a_at) / Fold change (Aza/veh), FGFR1OP (ProbeSet 11751329_s_at) / Fold change (ACY-1035/veh), FGFR1OP (ProbeSet 11751329_s_at) / Fold change (Aza/veh), VPS36 (ProbeSet 11739960_a_at) / Fold change (ACY-1035/veh), VPS36 (ProbeSet 11739960_a_at) / RFU SYPL1 (11715823_x_at) / Fold change /veh SYPL1 (11715823_x_at) / RFU IGFBP7 (11715501_s_at) / Fold change /veh IGFBP7 (11715501_s_at) / RFU REEP3 (11722064_at) / Fold change /veh REEP3 (11722064_at) / RFU IGLL1 (11728026_x_at) / Fold change /veh IGLL1 (11728026_x_at): dose or concentration left out as unconfirmed
Details: ProbeSet 11728879_at; LIST B

SMILES: Nc1ncn([C@@H]2O[C@H](CO)[C@@H](O)[C@H]2O)c(=O)n1 [azacitidine]
- RFU, PPP3R1: 331.25 RFU
